Laboratory results from patent US6465476B1, “Immuno-modulator exhibiting antimicrobial and anti-mycrobacterial activities, method for producing the same and pharmaceutical preparation” (priority 1997, dated 2002).
Where two headings read alike, the source gives them in different places.

Experiments:
[1] = due to impurities contained therein; cited from earlier work
[2] = test system: Kyp-4 strain of leprosy mycobacteria; assay: Antileprous activity in mice infected by Shepard's procedure; format: in vivo, leprosy mycobacteria; male mice of the CBA line; conditions: after six months; isophonum dose 2.5 mg/kg
Text: Antileprous activity of isophonum as compared with that of diuciphonum was studied on male mice of the CBA line infected with the laboratory Kyp-4 strain of leprosy mycobacteria taken in an amount of 5000 and introduced intraplantedly by Shepard's procedure. The experiment lasted six months from the 7th of February to the […] 1996. Observed were 5 groups of mice with 15 mice in each group. All the animals were kept under the same conditions of the vivarium on a standard diat.
The first group (controls): during six months of the experiment the mice received 0.5 ml of a starch suspension through a probe five times a week. After six months the animals were killed through a cervical dislocation of backbone, the organs were subjected to a bacterioscopic investigation, no pathologic deviations characteristic of any of the groups were found. The bacteriscopic investigation of the infected site was carried out by grinding the mouse foot in 2 ml of 0.1 percent solution of albumin, making a smear from 0.01 ml of the suspenstion and painting it by Ziel-Nielson's procedure and counting the number of leprosy micobacteria in 60 fields of vision to determine the number of micobacteria per mouse in each group.

[3] = test system: antibody-forming cells (AFC) in the spleens; assay: Antibody-forming cells in the spleen, immunodeficiency caused by irradiation (Jeme-Nordin's procedure); format: in vivo, mice F1 (CBA×C57BL/6); conditions: irradiated mice 4 Gy
Protocol: Determination of immunotropic activity of isophonum was carried out. Immunotropic activity of isophonum was determined on a model of immunodeficiency caused by irradiation. To create an immunodeficient state the mice F1 (CBA×C57BL/6) were irradiated with gamma-rays on a radioterapeutic apparatus in a dose of 4 Gy (Gy is the irradiation unit gray) at an irradiation dose power of 0.55 Gr/min. The number of antibody-forming cells (AFC) in the spleens was calculated by Jeme-Nordin's procedure. Isophonum and diuciphonum were introduced per os over a wide range of doses. The investigation results are represented in Table 1.

Tubazide-resistent H37Rv = format: in vivo, tuberculosis mycobacteria; mice of the CBA line; conditions: Tubazide-resistent H37Rv
[4] = test system: agent of leprosy (mycobacteria of leprosy); conditions: leprosy patients
[5] = in vivo; cited from earlier work
[6] = test system: antibody-forming cells (AFC) in the spleen; assay: Humoral immunity, localized-in-gel hemolysis, AFC accumulation in spleen of immunized mice; format: in vivo, hybrid mice F1 (CBA/C57BL6)
Protocol: The influence on humoral immunity was studied using the method of localized-in-gel hemolysis. […] On the 5th day the number of antibody-forming cells (AFC) in the spleen of the mice was calculated and the immune response stimulation index was determined as the ratio of AFC number in the test group to the AFC number in the control group. The respective data are represented in Table 2.

[7] = test system: tuberculosis mycobacteria H37Rv (USSR H37Rv); format: in vivo, tuberculosis mycobacteria; mice of the CBA line; conditions: USSR H37Rv
macrophages = assay: Phagocytic activity of macrophages (clearance from blood); format: in vivo, mice; conditions: 500 μg per mouse per os
Text: The influence of the preparations in question on the phagocytic activity of macrophages was studid from clearence of the carcass in blood taken from the retroorbital sinus of mice that received the preparations per os. The results were estimated on the phagocytic index α (see Table 4).

[8] = test system: human mononucleator cells (T-lymphocytes); assay: Proliferation of T-lymphocytes in cell culture in vitro (3H-thymidine); format: cell-based
Protocol: The influence of the test compound on the proliferation of T-lymphocytes was studied on a model in vitro. To this end human mononucleator cells were preliminarily incubated during three hours in the presence of different concentrations of each test substance. Each test substance was studied over a wide range of its concentrations, that is from […]. As a negative control there was added a physiological 0.9 percent solution of NaCl. The results of the influence of novel compoubds on the intensity of proliferation of human lymphocytes in the cell culture in vitro are represented in Table 3.

[9] = after three months, 0.6 g daily

Cc1[nH]c(=O)[nH]c(=O)c1S(=O)(=O)NNC(=O)c1ccncc1 [N-(6-methyl-2,4-dioxo-1,2,3,4-tetrahydro-5-pyrimidinsulfon)-N′-isonicotinoylhydrazide]
behaviour on prolonged storage [1]: does not withstand prolonged storage conditions

Cc1[nH]c(=O)[nH]c(=O)c1S(=O)(=O)Nc1ccc(S(=O)(=O)c2ccc(NS(=O)(=O)c3c(C)[nH]c(=O)[nH]c3=O)cc2)cc1 [Diuciphonum, reference compound]
Number of mycobacteria in the foot × 10^6 [2]: 0.048 ± 0.007 × 10^6 | Percentage of infected animals [2]: 60% | AFC-number in the spleen ([3]; 10 μg per mouse per os): 768 ± 123 | Immune response stimulation index ([3]; 10 μg per mouse per os): 2.5 ± 0.2 | AFC-number in the spleen ([3]; 100 μg per mouse per os): 870 ± 119 | Immune response stimulation index ([3]; 100 μg per mouse per os): 2.9 ± 0.12 | AFC-number in the spleen ([3]; 1000 μg per mouse per os): 647 ± 64 | Immune response stimulation index ([3]; 1000 μg per mouse per os): 2.1 ± 0.2 | Damage index (Tubazide-resistent H37Rv; dose not given): 2.27 ± 0.19 | Life duration (Tubazide-resistent H37Rv; dose not given): 24.9 ± 2.4 | Weight of the lung (Tubazide-resistent H37Rv; dose not given): 602.7 ± 70.2 | B-lymphocytes ([4]; after one month, 0.6 g daily): 8.4 ± 0.6 | T-helpers ([4]; after one month, 0.6 g daily): 32.4 ± 2.0 | T-lymphocytes ([4]; after one month, 0.6 g daily): 50.5 ± 2.1 | T-suppressors ([4]; after one month, 0.6 g daily): 20.1 ± 0.6 | Th/Ts (immunoregulatory index) ([4]; after one month, 0.6 g daily): 1.6 ± 0.1 | B-lymphocytes [4, 9]: 9.0 ± 0.3 | T-helpers [4, 9]: 36.9 ± 2.3 | T-lymphocytes [4, 9]: 55.4 ± 2.4 | T-suppressors [4, 9]: 20.0 ± 0.5 | Th/Ts (immunoregulatory index) [4, 9]: 1.8 ± 0.4 | B-lymphocytes ([4]; before treatment): 6.3 ± 0.3 | T-helpers ([4]; before treatment): 16.8 ± 0.2 | T-lymphocytes ([4]; before treatment): 30.4 ± 0.4 | T-suppressors ([4]; before treatment): 17.0 ± 0.4 | Th/Ts (immunoregulatory index) ([4]; before treatment): 1.0 | toxicity [5]: 2600 mg/kg | AFC-number in the spleen ([6]; 500 μg per mouse per os in starch suspension, 5th day after immunization): 2250 ± 125 | Immune response stimulation index ([6]; 500 μg per mouse per os, ratio of AFC test group to control group): 4.5 | Damage index ([7]; dose not given): 2.31 ± 0.24 | Life duration ([7]; dose not given): 25.1 ± 2.8 | Weight of the lung ([7]; dose not given): 580.4 ± 50.7 | Phagocytic index (macrophages): 5.18 ± 0.04 | Phagocytic index, percent of controls (macrophages; controls 100%): (123%) | Intensity of involvement of 3H-thymidine in DNA of cultivated cells, PHA-activated ([8]; 0.01 μg/ml): 22811 impulse per minute | Intensity of involvement of 3H-thymidine in DNA of cultivated cells, Spontaneous ([8]; 0.01 μg/ml): 860 impulse per minute | Intensity of involvement of 3H-thymidine in DNA of cultivated cells, PHA-activated ([8]; 0.03 μg/ml): 24214 impulse per minute | Intensity of involvement of 3H-thymidine in DNA of cultivated cells, Spontaneous ([8]; 0.03 μg/ml): 850 impulse per minute | Intensity of involvement of 3H-thymidine in DNA of cultivated cells, PHA-activated ([8]; 0.1 μg/ml): 28946 impulse per minute | Intensity of involvement of 3H-thymidine in DNA of cultivated cells, Spontaneous ([8]; 0.1 μg/ml): 804 impulse per minute | Intensity of involvement of 3H-thymidine in DNA of cultivated cells, PHA-activated ([8]; 1 μg/ml): 26400 impulse per minute | Intensity of involvement of 3H-thymidine in DNA of cultivated cells, Spontaneous ([8]; 1 μg/ml): 799 impulse per minute | Intensity of involvement of 3H-thymidine in DNA of cultivated cells, PHA-activated ([8]; 5 μg/ml): 20150 impulse per minute | Intensity of involvement of 3H-thymidine in DNA of cultivated cells, Spontaneous ([8]; 5 μg/ml): 800 impulse per minute

NNC(=O)c1ccncc1 [Tubazide]
Damage index (Tubazide-resistent H37Rv; 100 μg per mouse): 2.44 ± 0.24 | Life duration (Tubazide-resistent H37Rv; 100 μg per mouse): 23.7 ± 2.4 | Weight of the lung (Tubazide-resistent H37Rv; 100 μg per mouse): 628.7 ± 48.4 | Damage index (Tubazide-resistent H37Rv; 200 μg per mouse): 2.01 ± 0.18 | Life duration (Tubazide-resistent H37Rv; 200 μg per mouse): 30.2 ± 2.8 | Weight of the lung (Tubazide-resistent H37Rv; 200 μg per mouse): 580.4 ± 46.4 | toxicity [5]: 150 mg/kg | Damage index ([7]; 100 μg per mouse): 2.16 ± 0.17 | Weight of the lung ([7]; 100 μg per mouse): 586.4 ± 47.2 | Damage index ([7]; 200 μg per mouse): 2.11 ± 0.18 | Life duration ([7]; 200 μg per mouse): 32.2 ± 4.4 | Weight of the lung ([7]; 200 μg per mouse): 550.6 ± 46.4
